Assay [1] is described as follows: Displacement of Cy5-labelled (position-4) ATP from human HSP70 expressed in Escherichia coli BL21(DE3) after 16 hrs by microarray assay.
Assay [2] in a line: Displacement of Cy5-labelled (position-4) ATP from Mycobacterium tuberculosis HSP70 expressed in Escherichia coli BL21(DE3) after 16 hrs by microarray assay.
Assay [3] is filed under the species Homo sapiens. Briefly: Binding affinity to human HSP70 expressed in Escherichia coli BL21(DE3) at 100 uM after 16 hrs microarray assay.

EC50, Kd and Activity data for six molecules are collected here from ChEMBL document CHEMBL4177614, “Development of a microarray-based assay for efficient testing of new HSP70/DnaK inhibitors” (Bioorg Med Chem, 2017).

Structures are written as SMILES. Calls of active or inactive are those of the source. The rule behind the calls is not given here.

The EC50 is the concentration giving half of the maximal effect. The term Kd denotes a measure of binding affinity in units of concentration. Low values mean a tighter complex, high ones a looser complex.

Consider `Nc1ncnc2c1ncn2[C@@H]1O[C@H](COP(=O)(O)OP(=O)(O)OP(=O)(O)O)[C@@H](O)[C@H]1O` [ADENOSINE TRIPHOSPHATE], for which, in assay [1], the response was half-maximal at 1 nM (EC50) and the Kd was determined as 37 nM. In assay [2], this molecule yielded an EC50 of 1 nM and a Kd of 37 nM. In assay [1], `COc1ccc(-c2c(OC)c(O)c(-c3ccc(O)cc3)c(O)c2OC)cc1` displayed an EC50 of 29000 nM. Consider `CC[N+]1=C(/C=C/C=C/C=C2/N(CCCCCC(=O)NCCCCCCNP(=O)(O)OP(=O)(O)OP(=O)(O)OC[C@H]3O[C@@H](n4cnc5c(N)ncnc54)[C@H](O)[C@@H]3O)c3ccc(S(=O)(=O)O)cc3C2(C)C)C(C)(C)c2cc(S(=O)(=O)[O-])ccc21`, for which the outcome in assay [3] was inactive. For the molecule `COc1ccc(-c2c(O)c(O)c(-c3ccc(OC)cc3)c(OC)c2OC)cc1`, the EC50 in assay [1] amounted to 49000 nM. `CC[N+]1=C(/C=C/C=C/C=C2/N(CCCCCC(=O)NCCCCCCNc3ncnc4c3ncn4[C@@H]3O[C@H](COP(=O)(O)OP(=O)(O)OP(=O)(O)O)[C@@H](O)[C@H]3O)c3ccc(S(=O)(=O)O)cc3C2(C)C)C(C)(C)c2cc(S(=O)(=O)[O-])ccc21` yielded an EC50 in assay [1] of 484 nM. The Kd in assay [2] was 30600 nM. As for `CC[N+]1=C(/C=C/C=C/C=C2/N(CCCCCC(=O)NCCCCCCNc3nc4c(N)ncnc4n3[C@@H]3O[C@H](COP(=O)(O)OP(=O)(O)OP(=O)(O)O)[C@@H](O)[C@H]3O)c3ccc(S(=O)(=O)O)cc3C2(C)C)C(C)(C)c2cc(S(=O)(=O)[O-])ccc21`, the Kd in assay [1] was 2300 nM.
